This is an account of results in ChEMBL document CHEMBL5625225, “Vinylphosphonate-based cyclic dinucleotides enhance STING-mediated cancer immunotherapy” (Eur J Med Chem, 2023).

Molecules are shown by their SMILES. Active and inactive are the calls of the source. No cut-off for these calls is given here.

The target of series [1] is T1, Stimulator of interferon genes protein (Homo sapiens, UniProt Q86WV6). Description: Agonist activity at STING R232 mutant (unknown origin) expressed in digitonin -permeabilized HEK293T cells preincubated for 30 mins followed by washout and measured after 5 hrs by Bright-glo luciferase assay. The series is classed as cell-based.
Target sequence in this assay (Q86WV6 whole entry, looked up, stated change not applied): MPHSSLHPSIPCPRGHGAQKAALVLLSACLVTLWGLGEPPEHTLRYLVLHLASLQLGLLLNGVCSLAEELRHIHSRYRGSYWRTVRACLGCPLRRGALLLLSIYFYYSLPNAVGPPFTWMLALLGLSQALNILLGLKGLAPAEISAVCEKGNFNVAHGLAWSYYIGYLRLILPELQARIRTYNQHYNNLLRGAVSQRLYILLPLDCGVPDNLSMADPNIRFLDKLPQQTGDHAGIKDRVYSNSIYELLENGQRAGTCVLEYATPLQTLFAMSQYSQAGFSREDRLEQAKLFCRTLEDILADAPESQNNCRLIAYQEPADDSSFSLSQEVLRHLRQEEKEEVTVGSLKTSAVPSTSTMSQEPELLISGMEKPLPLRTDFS
Series [2] in a line: Agonist activity at STING R232H mutant (unknown origin) expressed in digitonin -permeabilized HEK293T cells preincubated for 30 mins followed by washout and measured after 5 hrs by Bright-glo luciferase assay. It counts as cell-based. The note with it: Homo sapiens, HEK-293T.
The nature of series [3]: Toxicity in BALB/c mouse assessed effect on body weight change at 0.67 to 6 mg/kg, IT(Intratumoral) measured upto 22 days. The series is classed as organism-based. To be noted: in vivo, other, 528 h, dose 0.67-6 mg/kg, time < 22 day.
The nature of series [4]: Toxicity in BALB/c mouse assessed effect on drug tolerance at 0.67 to 6 mg/kg, IT(Intratumoral) measured upto 22 days. The series is classed as organism-based. To be noted: in vivo, other, 528 h, dose 0.67-6 mg/kg, time < 22 day.
In series [5] the target is Stimulator of interferon genes protein (Homo sapiens, UniProt Q86WV6, G230A/R293Q). Description: Agonist activity at STING G230A/R293Q mutant (unknown origin) expressed in digitonin -permeabilized HEK293T cells preincubated for 30 mins followed by washout and measured after 5 hrs by Bright-glo luciferase assay. The series is classed as cell-based.
Sequence of Stimulator of interferon genes protein (Homo sapiens, UniProt Q86WV6, G230A/R293Q) (Q86WV6 whole entry G230A/R293Q): as the sequence (Q86WV6 whole entry, looked up, stated change not applied) above, with G230A, R293Q counted along it
The nature of series [6]: Induction of cytokine production in human PBMC cells assessed as IFN-gamma level incubated for 60 mins followed by washout and measured after 15 hrs. It counts as functional, cell-based.
Series [7] can be described thus: Induction of cytokine production in human PBMC cells assessed as IFN-alpha level incubated for 60 mins followed by washout and measured after 15 hrs. The series is classed as functional, cell-based.
Series [8] deals with Stimulator of interferon genes protein (Homo sapiens), Q86WV6 [G230A,R293Q]. To be noted: filed as agonist.
Sequence of Stimulator of interferon genes protein (Homo sapiens), Q86WV6 [G230A,R293Q] (Q86WV6 whole entry G230A/R293Q): as the sequence (Q86WV6 whole entry, looked up, stated change not applied) above, with G230A, R293Q counted along it
Description: Binding affinity to STING G230A/R293Q mutant (unknown origin) assessed as change in melting temperature by differential scanning fluorimetry analysis
Series [9] in a line: Induction of cytokine production in human PBMC cells assessed as TNF-alpha level incubated for 60 mins followed by washout and measured after 15 hrs. The series is classed as functional, cell-based.
Series [10] has as its system Stimulator of interferon genes protein (Homo sapiens), Q86WV6 [UNDEFINED MUTATION]. To be noted: filed as agonist.
Description: Binding affinity to STING R232 mutant (unknown origin) assessed as change in melting temperature by differential scanning fluorimetry analysis
Series [11] is described as follows: Toxicity in BALB/c mouse assessed effect on animal survival at 0.67 to 6 mg/kg, IT(Intratumoral) measured upto 22 days. To be noted: in vivo, other, 528 h, dose 0.67-6 mg/kg, time < 22 day. It counts as organism-based.
Series [12] addresses Stimulator of interferon genes protein (Homo sapiens, UniProt Q86WV6, G230A/R293Q/R71H). Description: Agonist activity at STING R71H/G230A/R293Q mutant (unknown origin) expressed in digitonin -permeabilized HEK293T cells preincubated for 30 mins followed by washout and measured after 5 hrs by Bright-glo luciferase assay. The series is classed as cell-based.
Series [13] concerns the target T1, Stimulator of interferon genes protein. Description: Agonist activity at wild type STING (unknown origin) expressed in HEK293T cells preincubated for 30 mins followed by washout and measured after 6.5 hrs by Bright-glo luciferase assay. It counts as cell-based.
Target sequence in this assay (Q86WV6 whole entry): as the sequence (Q86WV6 whole entry, looked up, stated change not applied) above
Series [14] shares this target. Description: Agonist activity at wild type STING (unknown origin) expressed in HEK293T cells measured after 7 hrs by Bright-glo luciferase assay. The series is classed as cell-based.
Target sequence in this assay (Q86WV6 whole entry): as the sequence (Q86WV6 whole entry, looked up, stated change not applied) above
The test system of series [15] is 4T1. Description: Antitumor immunity against mouse 4T1 cells xenografted in BALB/c syngeneic mouse model assessed as reduction in tumor volume measured upto 22 days administered as IT(Intratumoral) dose. To be noted: time <= 22.0 day. It counts as functional.
Series [16] has as its target Stimulator of interferon genes protein (Homo sapiens, UniProt Q86WV6, R293Q). Description: Agonist activity at STING R293Q mutant (unknown origin) expressed in digitonin -permeabilized HEK293T cells preincubated for 30 mins followed by washout and measured after 5 hrs by Bright-glo luciferase assay. The series is classed as cell-based.
Series [17] is described as follows: Toxicity in BALB/c mouse assessed body weight loss at 6 mg/kg, IT(Intratumoral) measured after 7 days relative to control. It counts as organism-based. The note with it: in vivo, other, 168 h, time 7 day.
The nature of series [18]: Stability in mouse plasma assessed as half life at 5 uM measured upto 120 mins by UPLC/MS analysis. The series is classed as ADME, cell-free.
Series [19] is described as follows: Stability in human plasma assessed as half life at 5 uM measured upto 120 mins by UPLC/MS analysis. It counts as ADME, cell-free.
For series [20], the system named is 4T1. Description: Antitumor immunity against mouse 4T1 cells xenografted in BALB/c syngeneic mouse model assessed as tumor growth inhibition at 0.67 mg/kg, IT(Intratumoral) measured upto 22 days relative to control. It counts as functional. To be noted: 4T1, 528 h, time <= 22 day, read-out: TGI.
Series [21] in a line: Toxicity in BALB/c mouse assessed effect on body weight change at 0.22 to 2 mg/kg, IT(Intratumoral) measured upto 22 days. The note with it: in vivo, other, 528 h, dose 0.22-2 mg/kg, time < 22 day. It counts as organism-based.
Series [22] is described as follows: Toxicity in BALB/c mouse assessed effect on drug tolerance at 0.22 to 2 mg/kg, IT(Intratumoral) measured upto 22 days. It counts as organism-based. To be noted: in vivo, other, 528 h, dose 0.22-2 mg/kg, time < 22 day.
Series [23] has as its system 4T1. Description: Antitumor immunity against mouse 4T1 cells xenografted in BALB/c syngeneic mouse model assessed as tumor growth inhibition at 2 mg/kg, IT(Intratumoral) measured upto 22 days relative to control. The series is classed as functional. To be noted: 4T1, 528 h, time <= 22 day, read-out: TGI.
The nature of series [24]: Toxicity in BALB/c mouse assessed effect on animal survival at 0.22 to 2 mg/kg, IT(Intratumoral) measured upto 22 days. The series is classed as organism-based. The note with it: in vivo, other, 528 h, dose 0.22-2 mg/kg, time < 22 day.
In series [25] the test system is 4T1. Description: Antitumor immunity against mouse 4T1 cells xenografted in BALB/c syngeneic mouse model assessed as increase in AH1positive CD8 T cell level at 2 mg/kg, IT(Intratumoral) measured upto 22 days. It counts as functional, organism-based. To be noted: time <= 22.0 day.

Sequence of Stimulator of interferon genes protein (Homo sapiens, UniProt Q86WV6, R293Q) (Q86WV6 whole entry R293Q): as the sequence (Q86WV6 whole entry, looked up, stated change not applied) above, with R293Q counted along it
Sequence of Stimulator of interferon genes protein (Homo sapiens), Q86WV6 [UNDEFINED MUTATION] (Q86WV6 whole entry, looked up, change not shown): as the sequence (Q86WV6 whole entry, looked up, stated change not applied) above
Sequence of Stimulator of interferon genes protein (Homo sapiens, UniProt Q86WV6, G230A/R293Q/R71H) (Q86WV6 whole entry R71H/G230A/R293Q): as the sequence (Q86WV6 whole entry, looked up, stated change not applied) above, with R71H, G230A, R293Q counted along it

The term EC50 denotes the concentration that produces a half-maximal response. Usually ΔTm stands for the shift of the melting midpoint relative to a reference. For the compound `Nc1ncnc2c1ncn2[C@@H]1O[C@@H]2/C=C\P(=O)(O)O[C@H]3[C@@H](F)[C@H](n4cnc5c(N)ncnc54)O[C@@H]3COP(=O)(O)O[C@H]2[C@H]1F`, the EC50 amounted to 30 nM in series [1]; 12000 nM in series [2]; 100 nM in series [5]; 36000 nM in [6] (Homo sapiens, PBMC); 110000 nM in [7] (Homo sapiens, PBMC); 76000 nM in [9] (Homo sapiens, PBMC). Besides, the half-maximal effective concentration (EC50) in series [12] was 100 nM; in [13], 50100 nM; in series [14] it was 21500 nM; in series [16] it was 1050 nM. The Activity result is “Non-Toxic” in [3]; “Non-Toxic” in [4]; “Non-Toxic” in series [11]; “Dose-Dependent Effect” in [15]; 3% in series [17]. For the same compound, the ΔTm in series [8] came to 11.3 °C; in [10] it was 6 °C.

As a reminder, the half-life is the time in which the quantity being followed falls by half. Regarding `CC(C)(C)C(=O)OCOP1(=O)/C=C/[C@H]2O[C@@H](n3cnc4c(N)ncnc43)[C@H](F)[C@@H]2OP(=O)(OCOC(=O)C(C)(C)C)OC[C@H]2O[C@@H](n3cnc4c(N)ncnc43)[C@H](F)[C@@H]2O1` (stereo in doubt; 11C), the EC50 in series [6] (pbmc) came to 50 nM; in series [7] (pbmc) it was 60 nM; in series [9] (pbmc) it was 40 nM; in series [13], 10 nM; in series [14], 12 nM. For the same compound, the results for the half-life at 5 µM in series [18] and in series [19] were 4 min and 49 min, respectively.

For `CCC(C)(C)C(=O)OCOP1(=O)/C=C/[C@H]2O[C@@H](n3cnc4c(N)ncnc43)[C@H](F)[C@@H]2OP(=O)(OCOC(=O)C(C)(C)CC)OC[C@H]2O[C@@H](n3cnc4c(N)ncnc43)[C@H](F)[C@@H]2O1` (stereo in doubt; 13C), the EC50 in series [6] (Homo sapiens, PBMC) is 20 nM; in series [7] (Homo sapiens, PBMC) it was 60 nM; in series [9] (Homo sapiens, PBMC) it was 120 nM; in series [13], 35 nM; in series [14], 7 nM. For the same compound, the half-life at 5 µM in series [18] stood at 4 min; in series [19], 86 min.

Consider `CC1(C(=O)OCOP2(=O)/C=C/[C@H]3O[C@@H](n4cnc5c(N)ncnc54)[C@H](F)[C@@H]3OP(=O)(OCOC(=O)C3(C)CCCCC3)OC[C@H]3O[C@@H](n4cnc5c(N)ncnc54)[C@H](F)[C@@H]3O2)CCCCC1` (stereo in doubt; 14C) [listing 1 of 2 here], for which the EC50 in series [6] (pbmc) was found to be 70 nM; in series [7] (pbmc), 110 nM; in series [9] (pbmc), 60 nM; in series [13], 30 nM; in series [14], 13 nM. Besides, the inhibition in vivo at 0.67 mg/kg in series [20] was determined as 70%. Further, the results for the half-life at 5 µM in [18] and in series [19] were 21 min and 130 min, respectively. For the same compound, the Activity entry in [21], in series [22] and in series [24] was “Non-Toxic” each time. In addition, the inhibition in vivo at 2 mg/kg in [23] is 80%.

Regarding `CC1(C(=O)OCOP2(=O)/C=C/[C@H]3O[C@@H](n4cnc5c(N)ncnc54)[C@H](F)[C@@H]3OP(=O)(OCOC(=O)C3(C)CCCCC3)OC[C@H]3O[C@@H](n4cnc5c(N)ncnc54)[C@H](F)[C@@H]3O2)CCCCC1` (stereo in doubt; 14C) [listing 2 of 2 here], the result in [25] was Active. Besides, in series [15], the Activity result was “Dose-Dependent Effect”.

Regarding `CCCCCCCC(=O)OCOP1(=O)/C=C/[C@H]2O[C@@H](n3cnc4c(N)ncnc43)[C@H](F)[C@@H]2OP(=O)(OCOC(=O)CCCCCCC)OC[C@H]2O[C@@H](n3cnc4c(N)ncnc43)[C@H](F)[C@@H]2O1` (stereo in doubt; 15C), the EC50 came to 170 nM in series [6] (pbmc); 120 nM in [7] (pbmc); 280 nM in series [9] (pbmc); 5 nM in [13]; 3 nM in series [14]. In addition, the half-life at 5 µM in series [18] is 3 min; in series [19], 19 min.
